Laboratory results published in ChEMBL document CHEMBL4028831, “Improvement of hERG-ROMK index of spirocyclic ROMK inhibitors through scaffold optimization and incorporation of novel pharmacophores” (Bioorg Med Chem Lett, 2017).
pIC50: −log10 of the molar value. Activity calls are given as the source filed them. The rule behind the calls is not given here.

How the values were obtained:
[1] = biological target: T1, ATP-sensitive inward rectifier potassium channel 1 (Homo sapiens, UniProt P48048); experiment: Inhibition of human ROMK expressed in CHO cells at -70 mV holding potential after 6 mins by whole cell patch clamp Qpatch method; assay type: cell-based
T1 sequence (P48048 whole entry): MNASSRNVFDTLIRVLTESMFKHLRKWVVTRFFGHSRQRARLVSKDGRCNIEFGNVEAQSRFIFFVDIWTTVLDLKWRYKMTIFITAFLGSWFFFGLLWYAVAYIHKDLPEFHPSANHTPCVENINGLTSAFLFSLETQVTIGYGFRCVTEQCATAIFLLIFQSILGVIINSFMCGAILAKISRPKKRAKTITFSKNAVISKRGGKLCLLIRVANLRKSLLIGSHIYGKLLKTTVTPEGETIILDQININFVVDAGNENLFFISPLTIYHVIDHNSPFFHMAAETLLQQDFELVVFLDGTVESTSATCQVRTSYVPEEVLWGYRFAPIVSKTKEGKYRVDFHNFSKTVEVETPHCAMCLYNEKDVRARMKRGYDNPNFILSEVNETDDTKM

[2] = Half life in Beagle dog at 1 mg/kg, iv; assay type: ADME, organism-based, Canis lupus familiaris; settings: in vivo
[3] = Half life in Wistar Han rat at 0.5 mg/kg, iv or 1 mg/kg, po; assay type: ADME, organism-based; settings: in vivo
[4] = Clearance in Beagle dog at 1 mg/kg, iv; assay type: ADME, organism-based, Canis lupus familiaris; settings: in vivo
[5] = Volume of distribution at steady state in Wistar Han rat at 0.5 mg/kg, iv or 1 mg/kg, po; assay type: ADME, organism-based; settings: in vivo, read-out: Vdss
[6] = test system: Rattus norvegicus; experiment: Dose normalized AUC in Wistar Han rat at 1 mg/kg, po; assay type: ADME, organism-based; settings: in vivo
[7] = biological target: T1, ATP-sensitive inward rectifier potassium channel 1; experiment: Inhibition of human ROMK channel expressed in HEK293 cells after 30 mins by FLIPR based thallium flux assay; assay type: cell-based
[8] = Clearance in Wistar Han rat at 0.5 mg/kg, iv or 1 mg/kg, po; assay type: ADME, organism-based; settings: in vivo
[9] = Oral bioavailability in Wistar Han rat at 1 mg/kg; assay type: ADME, organism-based; settings: in vivo
[10] = Volume of distribution at steady state in Beagle dog at 1 mg/kg, iv; assay type: ADME, organism-based, Canis lupus familiaris; settings: in vivo, read-out: Vdss
[11] = biological target: Voltage-gated inwardly rectifying potassium channel KCNH2 (Homo sapiens, UniProt Q12809); experiment: Displacement of [35S]MK499 from human ERG expressed in HEK293 cells
Chain of Voltage-gated inwardly rectifying potassium channel KCNH2 (Q12809 whole entry): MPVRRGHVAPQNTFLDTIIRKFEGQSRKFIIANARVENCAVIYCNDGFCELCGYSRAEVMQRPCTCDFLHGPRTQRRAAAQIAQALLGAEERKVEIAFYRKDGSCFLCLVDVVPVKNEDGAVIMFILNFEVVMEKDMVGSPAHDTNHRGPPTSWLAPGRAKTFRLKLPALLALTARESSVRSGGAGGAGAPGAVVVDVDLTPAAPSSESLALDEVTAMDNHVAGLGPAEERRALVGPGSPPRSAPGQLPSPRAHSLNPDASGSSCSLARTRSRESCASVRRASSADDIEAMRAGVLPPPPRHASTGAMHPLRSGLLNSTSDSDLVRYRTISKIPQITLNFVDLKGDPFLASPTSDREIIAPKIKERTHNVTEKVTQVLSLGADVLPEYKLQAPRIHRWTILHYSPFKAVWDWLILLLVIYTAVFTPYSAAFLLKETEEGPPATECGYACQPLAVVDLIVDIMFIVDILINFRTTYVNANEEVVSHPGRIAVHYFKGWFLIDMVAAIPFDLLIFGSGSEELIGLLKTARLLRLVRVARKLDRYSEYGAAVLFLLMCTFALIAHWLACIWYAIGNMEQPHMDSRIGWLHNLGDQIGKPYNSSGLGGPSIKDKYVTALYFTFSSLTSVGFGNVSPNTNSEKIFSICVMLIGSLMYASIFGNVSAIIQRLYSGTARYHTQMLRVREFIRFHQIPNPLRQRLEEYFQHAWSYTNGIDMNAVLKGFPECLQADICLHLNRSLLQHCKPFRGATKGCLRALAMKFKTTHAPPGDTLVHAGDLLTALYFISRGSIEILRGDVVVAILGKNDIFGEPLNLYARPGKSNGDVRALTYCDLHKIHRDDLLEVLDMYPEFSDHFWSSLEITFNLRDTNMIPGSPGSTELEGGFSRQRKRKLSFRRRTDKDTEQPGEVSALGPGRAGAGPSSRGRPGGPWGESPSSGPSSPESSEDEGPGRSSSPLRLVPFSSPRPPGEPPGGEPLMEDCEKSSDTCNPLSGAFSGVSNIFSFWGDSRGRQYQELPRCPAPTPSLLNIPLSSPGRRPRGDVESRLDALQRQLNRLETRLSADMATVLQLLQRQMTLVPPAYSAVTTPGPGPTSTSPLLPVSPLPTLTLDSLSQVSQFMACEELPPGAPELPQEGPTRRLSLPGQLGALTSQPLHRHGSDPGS

[12] = organism: Homo sapiens; experiment: Selectivity ratio of IC50 for human ERG expressed in HEK293 cells to IC50 for human ROMK expressed in HEK293 cells; assay type: cell-based
[13] = test system: Rattus norvegicus; experiment: Antihypertensive activity in rat spontaneous hypertensive model assessed as induction of diuresis at 3 mg/kg, po qd measured after 3 days; assay type: functional, organism-based
[14] = test system: Rattus norvegicus; experiment: Antihypertensive activity in rat spontaneous hypertensive model assessed as induction of natriuresis at 3 mg/kg, po qd measured after 3 days; assay type: functional, organism-based
[15] = test system: Rattus norvegicus; experiment: Antihypertensive activity in rat spontaneous hypertensive model assessed as induction of kaliuresis at 3 mg/kg, po qd measured after 3 days; assay type: functional, organism-based
[16] = test system: Rattus norvegicus; experiment: Antihypertensive activity in rat spontaneous hypertensive model assessed as change in systolic blood pressure at 3 mg/kg, po qd measured after 3 days; assay type: functional
[17] = Clearance in rat at 0.5 mg/kg, iv; settings: in vivo
[18] = test system: Rattus norvegicus; experiment: Antihypertensive activity in rat spontaneous hypertensive model assessed as change in systolic blood pressure at 25 mg/kg, po qd measured after 3 days; assay type: functional

COc1nccc(N2CCC3(CCN(C[C@H](O)c4ccc5c(c4C)COC5=O)CC3)C2=O)n1
pIC50 [1]: 8.30
half-life [2]: 1 h
half-life [3]: 4.1 h
clearance [4]: 9.7 mL/min/kg
Vd [5]: 1.8 L/kg
AUC/dose [6]: 3.8 µM·kg·h/mg
pIC50 [7]: 7.85
clearance [8]: 7.8 mL/min/kg
bioavailability [9]: 80%
Vd [10]: 0.7 L/kg

Cc1c([C@@H](O)CN2CCC3(CC2)CCN(c2ccc(=O)n(C(F)F)n2)C3=O)ccc2c1COC2=O
pIC50 [11]: 4.72
Ratio IC50 [12]: 147
pIC50 [7]: 6.89

Cc1c([C@@H](O)CN2CCC3(CC2)CN(c2ccns2)C(=O)O3)ccc2c1COC2=O
pIC50 [7]: 5.29

Cc1c([C@@H](O)CN2CCC3(CC2)CCN(c2ccns2)C3=O)ccc2c1COC2=O
Activity [13]: Active
Activity [14]: Active
Activity [15]: inactive
Activity [16]: -6 mmHg

Cc1c([C@@H](O)CN2CCC3(CC2)CN(c2ccc(=O)n(C)n2)C3)ccc2c1COC2=O
pIC50 [7]: < 5.70

Cc1cc(=O)n(C)nc1N1CCC2(CCN(C[C@H](O)c3ccc4c(c3C)COC4=O)CC2)C1=O
pIC50 [7]: 5.98

Cc1c([C@@H](O)CN2CCC3(CC2)CCN(c2ccn(C)c(=O)c2)C3=O)ccc2c1COC2=O
pIC50 [7]: 5.12

Cc1nc(-n2cnnn2)ccc1[C@@H](O)CN1CCC2(CC1)CCN(c1ccc(=O)n(C)n1)C2=O
pIC50 [11]: 4.76
Ratio IC50 [12]: 66

Cn1nc(N2CCC3(CCN(C[C@H](O)c4ccc(-n5cnnn5)nn4)CC3)C2=O)ccc1=O
pIC50 [11]: 5.51
Ratio IC50 [12]: 5
pIC50 [7]: 6.24

Cc1c([C@@H](O)CN2CCC3(CC2)CCN(c2ccc(=O)n(C4CCCC4)n2)C3=O)ccc2c1COC2=O
pIC50 [11]: 4.87
Ratio IC50 [12]: 329
pIC50 [7]: 7.39

COc1cc(N2CCC3(CCN(C[C@H](O)c4ccc5c(c4C)COC5=O)CC3)C2=O)ccn1
half-life [3]: 4.1 h
Vd [5]: 5 L/kg
AUC/dose [6]: 1.2 µM·kg·h/mg
clearance [8]: 20.8 mL/min/kg
bioavailability [9]: 66%

Cc1c([C@@H](O)CN2CCC3(CC2)CCN(c2ccc(S(C)(=O)=O)cn2)C3)ccc2c1COC2=O
clearance [17]: 24.2 mL/min/kg

Cc1c([C@@H](O)CN2CCC3(CC2)CCN(c2cnn(C)c(=O)c2)C3=O)ccc2c1COC2=O
pIC50 [7]: 6.74

Cc1nccc(N2CCC3(CCN(C[C@H](O)c4ccc5c(c4C)COC5=O)CC3)C2=O)n1
Activity [13]: Active
Activity [14]: Active
half-life [3]: 2.6 h
Activity [15]: inactive
Vd [5]: 4.4 L/kg
AUC/dose [6]: 1.6 µM·kg·h/mg
pIC50 [7]: 6.72
clearance [8]: 30.3 mL/min/kg
bioavailability [9]: 120%
Activity [16]: -11 mmHg

NS(=O)(=O)c1cc2c(cc1Cl)NCNS2(=O)=O [HYDROCHLOROTHIAZIDE]
Activity [18]: -7 mmHg

Cc1c([C@@H](O)CN2CCC3(CC2)CCN(c2cc(-c4ccccc4)no2)C3=O)ccc2c1COC2=O
pIC50 [11]: 7.27
Ratio IC50 [12]: 0.11

Cc1c([C@@H](O)CN2CCC3(CC2)CCN(c2ccns2)C3)ccc2c1COC2=O
pIC50 [7]: 7.57

Cc1nsc(N2CCC3(CCN(C[C@H](O)c4ccc5c(c4C)COC5=O)CC3)C2=O)n1
pIC50 [1]: 8.10
Activity [13]: Active
Activity [14]: Active
half-life [3]: 1.9 h
Activity [15]: inactive
Vd [5]: 4.2 L/kg
AUC/dose [6]: 1 µM·kg·h/mg
clearance [8]: 41 mL/min/kg
bioavailability [9]: 106%
Activity [16]: -10 mmHg

Cc1nsc(N2CCC3(CCN(C[C@H](O)c4ccc5c(c4C)COC5=O)CC3)C2)n1
pIC50 [11]: 5.38
Ratio IC50 [12]: 17

Cc1c([C@@H](O)[C@H](C)N2CCC3(CCN(c4ccc(=O)n(C)n4)C3=O)CC2)ccc2c1COC2=O
pIC50 [11]: < 4.22

Cc1cc(N2CCC3(CCN(C[C@H](O)c4ccc5c(c4C)COC5=O)CC3)C2=O)sn1
pIC50 [1]: 7.92
half-life [3]: 2.4 h
Vd [5]: 3.2 L/kg
AUC/dose [6]: 0.73 µM·kg·h/mg
pIC50 [7]: 7.74
clearance [8]: 23 mL/min/kg
bioavailability [9]: 45%

Cc1c([C@@H](O)CN2CCC3(CC2)CCN(c2cn(C)c(=O)cn2)C3=O)ccc2c1COC2=O
pIC50 [11]: < 4.22

COc1nsc(N2CCC3(CCN(C[C@H](O)c4ccc5c(c4C)COC5=O)CC3)C2=O)n1
Activity [13]: Active
half-life [2]: 1.3 h
Activity [14]: Active
half-life [3]: 4.7 h
clearance [4]: 24.4 mL/min/kg
Activity [15]: inactive
Vd [5]: 3 L/kg
AUC/dose [6]: 1.8 µM·kg·h/mg
clearance [8]: 9.6 mL/min/kg
bioavailability [9]: 47%
Activity [16]: -23 mmHg
Vd [10]: 1.7 L/kg

CCn1nc(N2CCC3(CCN(C[C@H](O)c4ccc5c(c4C)COC5=O)CC3)C2=O)ccc1=O
pIC50 [11]: 5.12
Ratio IC50 [12]: 99

Cc1c([C@@H](O)CN2CCC3(CC2)CCN(c2ccncc2)C3=O)ccc2c1COC2=O
half-life [3]: 2 h
Vd [5]: 21.5 L/kg
AUC/dose [6]: 0.11 µM·kg·h/mg
clearance [8]: 128 mL/min/kg
bioavailability [9]: 37%
